Results: publication PMC9571608, “Detection of Bitterness in Vitamins Is Mediated by the Activation of Bitter Taste Receptors” (Nutrients, 2022)
Each block holds one molecule with its values, some of them ahead of it.

Key:
TAS2R10 = target: T1, TAS2R10 (Homo sapiens, UniProt Q9NYW0); experiment: Calcium mobilization assay, cells transiently expressing TAS2R10; assay type: cell-based; on TAS2R Receptor 10 response: key: +: positive responses (lines with background color)
T1 construct: expressed in transfected cells; host or cells: HEK293T cells stably expressing Gα16gust44
T1 sequence (Q9NYW0 1-307): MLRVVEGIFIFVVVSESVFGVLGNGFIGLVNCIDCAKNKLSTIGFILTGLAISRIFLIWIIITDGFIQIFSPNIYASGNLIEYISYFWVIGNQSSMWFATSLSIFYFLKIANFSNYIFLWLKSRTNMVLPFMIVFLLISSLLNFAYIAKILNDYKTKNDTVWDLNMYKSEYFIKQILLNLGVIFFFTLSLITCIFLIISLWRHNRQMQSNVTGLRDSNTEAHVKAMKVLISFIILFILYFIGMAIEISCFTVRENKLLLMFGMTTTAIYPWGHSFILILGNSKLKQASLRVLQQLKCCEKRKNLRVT
Procedure: (§1) A functional expression study was carried out as described previously. TAS2R expression vectors (pcDNA5FRT-SST3-TAS2R-HSV and pEAK-10-SST3-TAS2RHSV) were kindly provided by Wolfgang Meyerhof (German Institute of Human Nutrition Postdam-Rehbruecke, Nuthetal, Germany). For all constructs, the N-terminus contained the first 45 amino acids of rat somatostatin 3 (SST3) to improve membrane targeting. A sequence coding for a herpes simplex virus glycoprotein D epitope (HSV-tag) was added at the C-terminus to allow immunocytochemical detection of the receptor [13, 14, 23, 24]. HEK293T cells stably expressing the chimeric G protein α subunit Gα16gust44 [25, 26] were seeded into poly-D-lysine-coated 96-well black plates (0.35 × 10^5 cells/well) in high-glucose DMEM supplemented with 2 mM GlutaMAX, 10% dialysed fetal bovine serum penicillin/streptomycin, and G418 (400 µg/mL), and then placed under a humidified and controlled atmosphere (37 °C and 6.3% CO2) overnight. […]
Approximately one hour after loading, the plate was rinsed twice with 100 µL of C1 buffer. The calcium signal was recorded for 90 s after injection of a range of compounds using a Flexstation 3 fluorometric imaging plate reader (Molecular Devices) at a wavelength of 510 nm after excitation at 488 nm. All substance concentrations were measured in triplicate in at least three independent experiments. […]
To obtain a dose–response curve, the ratio between the maximum variation in fluorescence after ligand addition and the initial fluorescence before addition (ΔF/F0) was calculated for each well. The fluorescence signals collected for each replicate were averaged for the same substance concentration, and the fluorescence changes in the corresponding mock-transfected cells were subtracted. […] The dose–response data were fitted, and EC50 values were calculated using a four-parameter logistic equation using SigmaPlot software (Systat Software, San Jose, CA, USA). […]

human taste perception = tested on: human taste perception; set-up: method as in doi:10.3758/BF03203878; conditions: concentration omitted in the cited paper; cited from earlier work
[1] = tested on: human bitter taste detection (sensory panel); experiment: Human bitter taste detection threshold, three-alternative forced choice (3-AFC), BET method; assay type: in vivo; conditions: 32 panelists, group BET
Description: Based on bibliographic studies, preliminary works performed in the laboratory, and the results of taste receptor functional assays, the following vitamins were included in this study: vitamin B1 (thiamine hydrochloride), vitamin B2 (riboflavin phosphate), vitamin B3 (niacinamide), and vitamin B6 (pyridoxine hydrochloride). These vitamins are present in high quantities in nutritional supplements, safe for humans (except at very high concentrations), and can induce a strong bitter taste. These concentrations were determined according to the toxicity threshold of each compound tested and the maximum daily reference intake. These compounds were prepared in commercial mineral water (Evian®, Evian, France).
The threshold values for bitter taste detection were determined by 32 panelists (18–65 years old, 14 males and 18 females, without sensory perception disorders, food allergies, drug treatments, or heart, lung, or cardiac pathologies) who were recruited from Dijon (France) and the surrounding areas. An ethical committee approved this study (Personal Protection Committee of Rennes—Ouest V, protocol code 2018A01342-53), and all panelists signed an informed consent form. A sensory test called three-alternative forced choice (3-AFC) was used in accordance with the protocol detailed in NF ISO 13301. Before performing the measurement sessions, four training sessions were provided to familiarize the panelists with the bitter taste, test procedure, and signal acquisition software. In this discriminative test, six series consisting of three samples, which were each encoded using randomly generated three-digit numbers, were simultaneously delivered to the panelists. The six 3-AFC presentations contained two blank samples (commercial mineral water, manufacturer: Evian, France) and ascending concentrations of vitamin solution. Before the test, subjects were advised that each presentation consisted of two samples that contained only water and one sample that contained a taste. For each 3-AFC presentation, subjects were asked to take the samples sequentially from left to right. Then, they placed the entirety of each sample solution in their mouths and carefully gargled to ensure that the solution was dispersed throughout the mouth. A sip-and-spit procedure was used; subjects rinsed their mouths with commercial mineral water between each series of tests. Subjects were asked to indicate which of the samples contained the stimulus. If a subject perceived no difference between the three samples, he or she was asked to choose one (forced choice). The sensory tests were conducted in a room devoted to sensory evaluation. For the case of colored samples, black-colored glasses were used, and tastings were performed under red light. […] The aim of this sensory analysis was to determine the bitter taste detection threshold for these vitamins and not an olfactory detection threshold. Therefore, the measurements were conducted using pinched nose clips. The subjects waited one minute between each series and had to thoroughly rinse their mouths. Four repetitions were performed per subject for each vitamin to obtain statistically interpretable results, which represented a total of 288 samples. During the sensory analysis session, a bitterness detection threshold of only two vitamins was used (36 samples) to avoid the ingestion of a high vitamin quantity, which is potentially harmful. The answers from the panelists were collected using software dedicated to sensory analysis (FIZZ acquisition V.2.51 software).
The best estimate threshold (BET) method was used to determine the bitter detection threshold for four vitamins. The individual best-estimated detection threshold (BET) was proposed in ASTM E679-04. ASTM E679-04 is a standard practice for the determination of odor and taste thresholds via a forced-choice ascending concentration series method of limits. […]

TAS2R38 = target: T2, TAS2R38 (Homo sapiens, UniProt P59533); experiment: Calcium mobilization assay, cells transiently expressing TAS2R38; assay type: cell-based; on TAS2R Receptor 38 response: key: +: positive responses (lines with background color)
T2 construct: expressed in transfected cells; host or cells: HEK293T cells stably expressing Gα16gust44
T2 sequence (P59533 1-333): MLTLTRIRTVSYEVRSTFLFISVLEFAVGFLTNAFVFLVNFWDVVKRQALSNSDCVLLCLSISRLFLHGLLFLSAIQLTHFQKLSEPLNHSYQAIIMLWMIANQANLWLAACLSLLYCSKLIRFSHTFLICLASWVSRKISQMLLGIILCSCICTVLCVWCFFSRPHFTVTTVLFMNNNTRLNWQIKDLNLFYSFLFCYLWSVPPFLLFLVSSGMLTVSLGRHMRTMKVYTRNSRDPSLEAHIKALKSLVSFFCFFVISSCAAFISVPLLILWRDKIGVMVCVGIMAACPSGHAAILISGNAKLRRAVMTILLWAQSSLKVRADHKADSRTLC
Procedure: as §1
Approximately 24–26 h after transfection, cells were loaded for 1 h at 37 °C with Fluo4-AM (2 µM, Molecular Probes), which had been previously mixed with pluronic acid F-127 (0.01%) in C1 buffer (130 mM NaCl, 5 mM KCl, 10 mM HEPES, 2 mM CaCl2, 10 mM pyruvic acid, pH 7.4, 300 mOsm) containing 2.5 mM probenecid (Life Technologies). […] The calcium signal was recorded for 90 s after injection of a range of compounds using a Flexstation 3 fluorometric imaging plate reader (Molecular Devices) at a wavelength of 510 nm after excitation at 488 nm. All substance concentrations were measured in triplicate in at least three independent experiments. […]
To obtain a dose–response curve, the ratio between the maximum variation in fluorescence after ligand addition and the initial fluorescence before addition (ΔF/F0) was calculated for each well. The fluorescence signals collected for each replicate were averaged for the same substance concentration, and the fluorescence changes in the corresponding mock-transfected cells were subtracted. […]

[2] = HEK293T-Gα16gust44 cells, calcium signal, up to M.A.C

Structure (SMILES): C=C1CC[C@H](O)C/C1=C/C=C1\CCC[C@]2(C)[C@@H]([C@H](C)CCCC(C)C)CC[C@@H]12 [Vitamin D, cholecalciferol]
- TAS2R10 activation (TAS2R10; 1 mM): strongly activate
- TAS2R Receptor 10 response (TAS2R10; [2]): +
- EC50 (TAS2R10; read-out: EC50 (half-maximal TAS2R10 activation), TAS2R10-expressing HEK293T cells, Fluo-4 calcium response): 250 ± 200 µM
- Taste described by sensory analysis (human taste perception): tasteless

Structure (SMILES): Cc1cc2nc3c(=O)[nH]c(=O)nc-3n(C[C@H](O)[C@H](O)[C@H](O)COP(=O)(O)O)c2cc1C [Vitamin B2, riboflavin phosphate]
- Human Bitter Taste Detection Threshold ([1]; Figure 3, aqueous solution): 0.00065 mol/L
- Human Bitter Taste Detection Threshold ([1]; aqueous solution (mineral water), nose clips): 0.00065 mol/L

- TAS2R38 activation (TAS2R38; 1 mM): strongly activate
- TAS2R Receptor 38 response (TAS2R38; [2]): +
- EC50 (TAS2R38; TAS2R38-expressing HEK293T cells, Fluo-4 calcium response, read-out: EC50 (half-maximal TAS2R38 activation)): 290 ± 200 µM
Structure (SMILES): CC1=C(/C=C/C(C)=C/C=C/C(C)=C/C=O)C(C)(C)CCC1 [Vitamin A, retinal]
